{
  "source": "paper PMC12325182",
  "about": "“Discovery of novel and potent celastrol derivatives as PRDX1 inhibitors for cancer therapy through structure-based virtual screening” (Frontiers in Pharmacology, 2025)",
  "key": {"PRDX1 [1]": {"target": "T1, PRDX1 (Homo sapiens, UniProt Q06830)", "T1 sequence (Q06830 1-199)": "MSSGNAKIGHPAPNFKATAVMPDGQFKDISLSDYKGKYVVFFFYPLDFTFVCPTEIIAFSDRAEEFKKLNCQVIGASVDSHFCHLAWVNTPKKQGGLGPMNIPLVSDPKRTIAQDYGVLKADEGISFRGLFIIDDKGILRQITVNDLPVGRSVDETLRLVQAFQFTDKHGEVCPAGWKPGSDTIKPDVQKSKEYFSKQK", "experiment": "MST assay", "format": "binding", "details": "MST; mean ± SD, n = 3; read-out: PRDX1 (Kd)", "protocol": "The MST assays were carried out in a buffer composed of 50 mM Tris, 200 mM NaCl, and 0.1% (v/v) TWEEN20. PRDX1 was tagged with the MO-L011 protein labeling kit (RED-NHS second Generation). The diluted compounds were combined with the tagged PRDX1 protein and allowed to stand at room temperature for 5 minutes. Subsequently, the reaction mixture was loaded into capillaries, and measurements were taken using a Monolith NT.115 instrument."}, "PRDX1 [2]": {"target": "T1, PRDX1", "experiment": "Kinetics studies of PRDX1 inhibition", "format": "biochemical", "details": "mean ± SD, n = 3", "protocol": "The PRDX1 protein (0.5 nM) was incubated with varying concentrations of the CP1 (0, 0.6, 1.5, and 3.8 nM) at room temperature for 1 h. Subsequently, the Trx/TrxR/NADPH mixture was added and the enzymatic reaction was initiated by the addition of different concentrations of H2O2 (5–1,000 μM). The absorbance changes at 340 nm were monitored in real-time using a microplate reader. Kinetic parameters, including the Michaelis constant (Km), maximum reaction rate (Vmax), and α value, were determined by fitting the data to the Michaelis-Menten equation."}, "[3]": {"system": "HEK293 (embryonic kidney cells)", "experiment": "MTT assay", "format": "cell-based", "details": "Homo sapiens, HEK293; MTT, 72 h; normal cells; mean ± SD, n = 3; read-out: IC50 (μM) HEK293", "protocol": "(§1) Cells were seeded in 96-well plates at 5 ×10^4 cells/well and cultured overnight at 37°C under 5% CO2. After medium removal, cells were treated with serially diluted compounds (0.04–163.84 μM) or vehicle control (0.1% DMSO) and incubated for 72 h. Subsequently, 20 μL of MTT solution (5 mg/mL) was added to each well, and incubation was continued for 4 h. Add 150 μL of DMSO and shake for 10 min to fully dissolve the crystal. Finally, the absorbance was measured at 570 nm using a microplate reader. Cell viability was calculated as (ODcompound - ODblank)/(ODvehicle - ODblank) × 100%. The half inhibitory concentration (IC50) was calculated from the dose-response curve using Prism 8.0 software. Three independent replicate experiments were performed."}, "LO2 (normal liver cells)": {"system": "LO2 (normal liver cells)", "experiment": "MTT assay", "format": "cell-based", "details": "Homo sapiens; MTT, 72 h; normal cells; mean ± SD, n = 3; read-out: IC50 (μM) LO2", "protocol": "as §1"}, "[4]": {"system": "MCF-7 (breast adenocarcinoma cells)", "experiment": "MTT assay", "format": "cell-based", "details": "Homo sapiens, MCF7; MTT, 72 h; mean ± SD, n = 3; read-out: IC50 (μM) MCF-7", "protocol": "as §1"}, "[5]": {"system": "HepG2 (hepatocellular carcinoma cells)", "experiment": "MTT assay", "format": "cell-based", "details": "Homo sapiens, HepG2; MTT, 72 h; mean ± SD, n = 3; read-out: IC50 (μM) HepG2", "protocol": "as §1"}, "A549 lung cancer cells": {"system": "A549 lung cancer cells", "experiment": "MTT assay", "format": "cell-based", "protocol": "as §1"}, "[6]": {"system": "BEAS-2B normal lung cells", "experiment": "MTT assay", "format": "cell-based", "details": "Homo sapiens, MTT, 72 h, normal lung cells, mean ± SD, n = 3, read-out: IC50 (μM) BEAS-2B", "protocol": "as §1"}, "[7]": {"system": "HaCaT (immortalised keratinocytes)", "experiment": "MTT assay", "format": "cell-based", "details": "Homo sapiens, 72 h, normal cells, mean ± SD, n = 3", "protocol": "as §1"}, "LCK": {"target": "LCK (Homo sapiens, UniProt P06239)", "sequence (P06239 whole entry)": "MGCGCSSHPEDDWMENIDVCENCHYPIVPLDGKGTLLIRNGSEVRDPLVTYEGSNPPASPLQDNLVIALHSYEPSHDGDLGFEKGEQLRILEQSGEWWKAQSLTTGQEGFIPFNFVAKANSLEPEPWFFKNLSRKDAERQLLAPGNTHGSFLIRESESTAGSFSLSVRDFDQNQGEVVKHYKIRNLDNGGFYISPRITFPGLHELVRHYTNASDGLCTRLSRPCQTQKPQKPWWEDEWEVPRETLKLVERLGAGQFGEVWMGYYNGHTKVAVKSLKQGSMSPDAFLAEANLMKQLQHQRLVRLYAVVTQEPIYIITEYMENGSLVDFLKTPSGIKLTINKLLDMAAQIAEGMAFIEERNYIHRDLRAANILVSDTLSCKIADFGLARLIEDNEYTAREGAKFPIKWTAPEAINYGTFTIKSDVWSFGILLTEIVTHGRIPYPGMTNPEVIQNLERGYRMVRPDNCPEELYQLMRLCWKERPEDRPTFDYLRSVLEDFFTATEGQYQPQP", "experiment": "Kinase selectivity assay", "format": "biochemical", "details": "target LCK; read-out: CP1 IC50", "protocol": "(§2) The selectivity of CP1 for PRDX1 was evaluated through kinase selectivity assays against other PRDX family members and a panel of kinases. The experiments were conducted by ICE Biosciences (Beijing, China)."}, "IGF1R": {"target": "T2, IGF1R (Homo sapiens, UniProt P08069)", "T2 construct": "ICE Biosciences (Beijing, China), ran the assays", "T2 sequence (P08069 31-1367)": "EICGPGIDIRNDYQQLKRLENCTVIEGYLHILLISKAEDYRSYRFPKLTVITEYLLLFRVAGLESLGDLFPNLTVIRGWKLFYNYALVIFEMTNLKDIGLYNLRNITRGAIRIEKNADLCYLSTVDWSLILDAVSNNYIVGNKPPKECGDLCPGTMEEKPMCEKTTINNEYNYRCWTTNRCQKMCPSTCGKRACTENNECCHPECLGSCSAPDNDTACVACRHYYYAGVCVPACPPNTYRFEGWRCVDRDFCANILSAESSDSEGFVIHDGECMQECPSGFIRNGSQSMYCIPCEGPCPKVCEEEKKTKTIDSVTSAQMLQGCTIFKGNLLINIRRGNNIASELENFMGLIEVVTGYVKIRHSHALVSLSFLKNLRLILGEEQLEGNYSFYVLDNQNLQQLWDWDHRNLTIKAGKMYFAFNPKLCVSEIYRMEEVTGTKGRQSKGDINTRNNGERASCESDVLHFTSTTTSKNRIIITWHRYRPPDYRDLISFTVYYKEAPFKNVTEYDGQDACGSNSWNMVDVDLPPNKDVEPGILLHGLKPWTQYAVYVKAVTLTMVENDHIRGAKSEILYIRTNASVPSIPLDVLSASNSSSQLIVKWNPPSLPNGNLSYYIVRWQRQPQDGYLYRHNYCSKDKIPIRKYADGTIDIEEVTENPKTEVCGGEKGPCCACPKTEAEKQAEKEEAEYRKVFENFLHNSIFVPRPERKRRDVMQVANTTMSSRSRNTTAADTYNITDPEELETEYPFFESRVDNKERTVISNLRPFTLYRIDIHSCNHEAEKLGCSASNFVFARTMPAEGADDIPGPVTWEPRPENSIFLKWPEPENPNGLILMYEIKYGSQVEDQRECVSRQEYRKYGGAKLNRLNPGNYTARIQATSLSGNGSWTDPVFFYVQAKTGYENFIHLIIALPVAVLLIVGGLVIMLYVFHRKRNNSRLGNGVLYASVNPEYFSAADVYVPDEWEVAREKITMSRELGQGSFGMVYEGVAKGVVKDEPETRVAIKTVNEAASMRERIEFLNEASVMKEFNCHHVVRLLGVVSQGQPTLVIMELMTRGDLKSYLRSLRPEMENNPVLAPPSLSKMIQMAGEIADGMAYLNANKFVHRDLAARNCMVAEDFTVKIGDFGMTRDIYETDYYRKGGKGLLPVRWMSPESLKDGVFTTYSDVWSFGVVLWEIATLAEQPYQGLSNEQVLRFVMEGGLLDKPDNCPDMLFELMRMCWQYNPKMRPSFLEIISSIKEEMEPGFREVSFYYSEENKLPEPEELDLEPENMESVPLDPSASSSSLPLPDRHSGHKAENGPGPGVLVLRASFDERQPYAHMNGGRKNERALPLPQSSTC", "experiment": "Kinase selectivity assay", "format": "biochemical", "details": "target IGF1R; read-out: CP1 IC50", "protocol": "as §2"}, "FES": {"target": "T3, FES (Homo sapiens, UniProt P07332)", "T3 construct": "assay run by ICE Biosciences (Beijing, China)", "T3 sequence (P07332 whole entry)": "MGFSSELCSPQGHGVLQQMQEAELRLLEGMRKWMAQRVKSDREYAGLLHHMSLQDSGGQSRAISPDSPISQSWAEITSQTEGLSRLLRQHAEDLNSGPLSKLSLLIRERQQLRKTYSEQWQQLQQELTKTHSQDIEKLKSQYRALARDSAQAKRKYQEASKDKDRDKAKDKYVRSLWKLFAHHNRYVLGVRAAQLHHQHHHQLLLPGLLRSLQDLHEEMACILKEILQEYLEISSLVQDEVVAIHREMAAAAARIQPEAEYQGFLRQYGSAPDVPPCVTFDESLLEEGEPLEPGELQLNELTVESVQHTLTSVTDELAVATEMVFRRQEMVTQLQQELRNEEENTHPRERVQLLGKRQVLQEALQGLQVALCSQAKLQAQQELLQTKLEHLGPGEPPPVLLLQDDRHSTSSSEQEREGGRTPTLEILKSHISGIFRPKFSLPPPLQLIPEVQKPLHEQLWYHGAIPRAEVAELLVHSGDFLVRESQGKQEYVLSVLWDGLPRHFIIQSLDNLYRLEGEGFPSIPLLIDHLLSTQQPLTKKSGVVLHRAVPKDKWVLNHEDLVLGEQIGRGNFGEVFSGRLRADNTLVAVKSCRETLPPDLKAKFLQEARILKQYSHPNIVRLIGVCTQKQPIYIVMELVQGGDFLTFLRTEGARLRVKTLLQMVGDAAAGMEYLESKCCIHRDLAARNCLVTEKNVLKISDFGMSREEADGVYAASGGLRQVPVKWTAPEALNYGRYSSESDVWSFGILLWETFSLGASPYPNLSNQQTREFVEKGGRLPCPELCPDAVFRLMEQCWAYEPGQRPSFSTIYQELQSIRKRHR", "experiment": "Kinase selectivity assay", "format": "biochemical", "details": "target FES; read-out: CP1 IC50", "protocol": "as §2"}, "TYRO3": {"target": "T4, TYRO3 (Homo sapiens, UniProt Q06418)", "T4 construct": "ICE Biosciences (Beijing, China), a contract laboratory that ran the assay", "T4 sequence (Q06418 41-890, species assumed)": "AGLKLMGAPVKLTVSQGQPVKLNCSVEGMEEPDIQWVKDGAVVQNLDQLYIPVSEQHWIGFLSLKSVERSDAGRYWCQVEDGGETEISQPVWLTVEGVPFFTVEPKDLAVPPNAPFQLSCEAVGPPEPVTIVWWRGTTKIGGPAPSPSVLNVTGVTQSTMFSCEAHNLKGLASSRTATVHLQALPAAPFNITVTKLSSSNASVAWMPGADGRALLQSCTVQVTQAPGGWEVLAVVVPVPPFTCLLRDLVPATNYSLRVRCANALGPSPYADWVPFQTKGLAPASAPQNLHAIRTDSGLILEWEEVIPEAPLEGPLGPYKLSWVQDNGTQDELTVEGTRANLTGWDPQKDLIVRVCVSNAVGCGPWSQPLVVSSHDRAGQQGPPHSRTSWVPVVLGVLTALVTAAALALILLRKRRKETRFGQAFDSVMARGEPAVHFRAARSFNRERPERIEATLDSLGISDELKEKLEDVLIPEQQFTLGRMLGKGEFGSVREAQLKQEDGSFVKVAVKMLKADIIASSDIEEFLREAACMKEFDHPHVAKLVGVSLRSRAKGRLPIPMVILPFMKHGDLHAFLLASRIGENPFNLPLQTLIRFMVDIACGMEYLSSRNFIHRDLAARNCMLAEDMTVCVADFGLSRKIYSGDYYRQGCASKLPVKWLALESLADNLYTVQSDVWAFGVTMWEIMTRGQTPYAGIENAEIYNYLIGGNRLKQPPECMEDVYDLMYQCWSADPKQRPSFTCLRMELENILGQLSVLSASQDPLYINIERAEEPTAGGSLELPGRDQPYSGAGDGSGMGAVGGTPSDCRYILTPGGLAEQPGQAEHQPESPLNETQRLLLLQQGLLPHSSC", "experiment": "Kinase selectivity assay", "format": "biochemical", "details": "target TYRO3; read-out: CP1 IC50", "protocol": "as §2"}, "LTK": {"target": "LTK (Homo sapiens, UniProt P29376)", "sequence (P29376 17-864)": "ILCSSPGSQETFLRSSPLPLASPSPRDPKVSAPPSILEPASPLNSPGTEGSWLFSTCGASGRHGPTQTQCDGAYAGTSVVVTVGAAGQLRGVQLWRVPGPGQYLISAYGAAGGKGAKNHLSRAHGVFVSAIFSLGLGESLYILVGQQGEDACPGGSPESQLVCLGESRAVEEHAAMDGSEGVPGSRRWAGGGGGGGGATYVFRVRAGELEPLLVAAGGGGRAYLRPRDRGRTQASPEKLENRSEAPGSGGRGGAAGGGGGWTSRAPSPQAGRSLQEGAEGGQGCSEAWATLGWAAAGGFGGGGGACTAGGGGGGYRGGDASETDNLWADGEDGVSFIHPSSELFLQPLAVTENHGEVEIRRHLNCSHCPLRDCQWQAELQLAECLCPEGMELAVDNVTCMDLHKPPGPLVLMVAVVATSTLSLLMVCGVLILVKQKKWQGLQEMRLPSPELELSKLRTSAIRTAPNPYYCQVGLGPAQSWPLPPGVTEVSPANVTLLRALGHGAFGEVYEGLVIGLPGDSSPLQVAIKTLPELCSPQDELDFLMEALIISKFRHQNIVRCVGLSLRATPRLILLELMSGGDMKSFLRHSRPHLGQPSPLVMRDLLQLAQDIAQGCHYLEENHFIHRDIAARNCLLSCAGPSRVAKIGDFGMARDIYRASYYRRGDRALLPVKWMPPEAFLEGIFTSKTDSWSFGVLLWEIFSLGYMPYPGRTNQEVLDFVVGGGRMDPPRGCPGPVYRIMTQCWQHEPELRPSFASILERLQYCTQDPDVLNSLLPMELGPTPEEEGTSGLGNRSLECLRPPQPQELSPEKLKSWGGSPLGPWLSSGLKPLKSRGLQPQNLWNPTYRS", "experiment": "Kinase selectivity assay", "format": "biochemical", "details": "target LTK; read-out: CP1 IC50", "protocol": "as §2"}, "PRDX1 [8]": {"target": "T1, PRDX1", "experiment": "PRDX1 inhibition assay", "format": "biochemical", "details": "mean ± SD, n = 3; read-out: PRDX1 (IC50)", "protocol": "The cells were purchased from the American Type Culture Collection (ATCC) (Manassas, VA, United States). Cells were cultured in RPMI-1640 medium supplemented with 10% FBS, 50 units/mL penicillin, and 50 μg/mL streptomycin, and maintained at 37°C in a 5% CO2 humidified culture environment. CPs 1-5 were purchased from WuXi AppTec. Human PRDX1 proteins were purchased from Abcam (Cambridge, MA, United States).\nFirst, […] buffer (20 mM HEPES, 5 mM EDTA, 5 μM cofactor A, 2 μM cofactor B, and 300 μM NADPH) was added to a 96-well plate. The test compounds at the designated concentration (0.02–2 nM, with 1.5-fold dilution) were incubated with PRDX1 at 37°C for 25 min, and then the co-incubated mixture was added to each well to a final concentration of 200 nM PRDX1. Finally, 200 μM H2O2 was added to each well to initiate the enzyme reaction cycle. The oxidation of NADPH was determined by the absorption value at 340 nm. Read plate values for 90 s for one cycle and repeat for 20 cycles. The positive control (celastrol, concentrations 0.06–64 μM) was tested in parallel under identical experimental conditions. Three independent replicate experiments were performed."}},
  "data": [
    {"smiles": "CC1=C(CC(=O)/C=C/c2cccc(CO)c2)C(=O)C=C2C1=CC=C1[C@@]2(C)CC[C@@]2(C)C3C[C@](C)(C(=O)CCc4nc(C(O)C(O)O)c(C)nc4C)CC[C@]3(C)CC[C@]12C", "note": "(stereo partly drawn) [CP1]", "values": [
      {"measurement": "Kd", "setting": "PRDX1 [1]", "result": "0.06 ± 0.001", "unit": "nM"},
      {"measurement": "Vmax", "setting": "PRDX1 [2]; CP1 concentration 0.6 nM", "result": "56.2 ± 1.94", "unit": "M/s"},
      {"measurement": "Vmax", "setting": "PRDX1 [2]; CP1 concentration 1.5 nM", "result": "40.7 ± 2.42", "unit": "M/s"},
      {"measurement": "Vmax", "setting": "PRDX1 [2]; CP1 concentration 3.8 nM", "result": "26.8 ± 1.07", "unit": "M/s"},
      {"measurement": "IC50", "setting": "[3]", "result": "> 100", "unit": "µM"},
      {"measurement": "IC50", "setting": "LO2 (normal liver cells)", "result": "> 100", "unit": "µM"},
      {"measurement": "IC50", "setting": "[4]", "result": "0.27 ± 0.01", "unit": "µM"},
      {"measurement": "IC50", "setting": "[5]", "result": "0.25 ± 0.02", "unit": "µM"},
      {"measurement": "IC50", "setting": "A549 lung cancer cells; Homo sapiens, A549, MTT, 72 h, mean ± SD, n = 3, read-out: IC50 (μM) A549", "result": "0.22 ± 0.01", "unit": "µM"},
      {"measurement": "improvement of antiproliferative activity against A549 cells compared to celastrol", "setting": "A549 lung cancer cells; ratio of IC50 values", "result": "approximately 5 fold"},
      {"measurement": "IC50", "setting": "[6]", "result": "> 100", "unit": "µM"},
      {"measurement": "IC50", "setting": "[7]", "result": "> 100", "unit": "µM"},
      {"measurement": "IC50", "setting": "LCK", "result": "> 30000", "unit": "nM"},
      {"measurement": "IC50", "setting": "IGF1R", "result": "> 30000", "unit": "nM"},
      {"measurement": "IC50", "setting": "FES", "result": "> 30000", "unit": "nM"},
      {"measurement": "IC50", "setting": "TYRO3", "result": "> 30000", "unit": "nM"},
      {"measurement": "IC50", "setting": "LTK", "result": "> 30000", "unit": "nM"},
      {"measurement": "IC50", "setting": "PRDX1 [8]", "result": "0.08 ± 0.01", "unit": "nM"}
    ]}
  ]
}
